The numbers were not newly measured in patent US20110152294A1, “USE OF OSMOLYTES OBTAINED FROM EXTREMOPHILIC BACTERIA FOR THE PRODUCTION OF INHALABLE MEDICAMENTS FOR THE PROPHYLAXIS AND TREATMENT OF PULMONARY AND CARDIOVASCULAR DISEASES AND AN INHALATION DEVICE COMPRISING OSMOLYTE AS ACTIVE AGENT COMPONENT” (priority 2003, published 2011), which cites them from elsewhere.

Each structure is given as a SMILES string.

This data set deals with cornea and iris of the eyes of rabbits. The conditions noted are these: external application on cornea and iris of rabbit eyes; effects disappeared afterwards.

Turning to `CC1=NC[C@H](O)[C@@H](C(=O)O)N1` [hydroxyectoine], the “eye irritation after external application” value was “initial irritation and sensitization of the conjunctiva”.
